Oligonucleotides are written 5' to 3', each unit as a sugar letter and its base; * is a phosphorothioate linkage, no mark a phosphodiester; rarer units and linkages stand in square brackets, end groups in braces. Plain capitals give the bases only. d = 2'-deoxy (DNA); r = 2'-OH (RNA)
Biological target: MRFAP1
Assay: reporter assay of Huesken 2005
Details: siRNA
Note: test concentration or dose not given here.

First: sense rCrUrGrArGrArCrUrUrGrGrArGrUrUrGrGrArGdTdT / antisense rCrUrCrCrArArCrUrCrCrArArGrUrCrUrCrArGdTdG
Second: sense rCrUrGrCrCrCrGrUrCrArUrCrCrArCrGrArGrAdTdT / antisense rUrCrUrCrGrUrGrGrArUrGrArCrGrGrGrCrArGdCdA
The normalised inhibition (eCFP-eYFP dual reporter) of the first is higher: 81.5% for the first, 70.8% for the second.

Compared with “sense rCrUrGrCrUrGrCrCrCrGrUrCrArUrCrCrArCrGdTdT / antisense rCrGrUrGrGrArUrGrArCrGrGrGrCrArGrCrArGdAdA”, “sense rCrUrGrUrGrGrGrArGrArUrGrGrArCrArArUrAdTdT / antisense rUrArUrUrGrUrCrCrArUrCrUrCrCrCrArCrArGdCdT” is higher in normalised inhibition (eCFP-eYFP dual reporter): 39.5% for the first, 82.9% for the second.

Compared with “sense rCrUrUrCrGrArGrCrArGrUrUrUrCrUrGrCrUrGdTdT / antisense rCrArGrCrArGrArArArCrUrGrCrUrCrGrArArGdTdC”, “sense rCrUrUrGrCrArArUrArCrCrCrUrUrUrGrUrGrUdTdT / antisense rArCrArCrArArArGrGrGrUrArUrUrGrCrArArGdGdA” is higher in normalised inhibition (eCFP-eYFP dual reporter): 59.9% for the first, 74.1% for the second.

Compared with “sense rCrUrUrGrGrArGrUrUrGrGrArGrCrUrCrArCrCdTdT / antisense rGrGrUrGrArGrCrUrCrCrArArCrUrCrCrArArGdTdC”, “sense rCrUrUrGrUrUrCrGrUrCrUrGrUrArCrArArGrUdTdT / antisense rArCrUrUrGrUrArCrArGrArCrGrArArCrArArGdAdC” is lower in normalised inhibition (eCFP-eYFP dual reporter): 55.2% for the first, 54.3% for the second.

Going from “sense rGrArArArCrCrArGrArGrArGrCrCrUrUrUrGrUdTdT / antisense rArCrArArArGrGrCrUrCrUrCrUrGrGrUrUrUrCdAdG” to “sense rGrArArArGrArUrCrCrUrUrGrCrArArUrArCrCdTdT / antisense rGrGrUrArUrUrGrCrArArGrGrArUrCrUrUrUrCdAdT”, the normalised inhibition (eCFP-eYFP dual reporter) falls from 86% to 82.6%.

Compared with “sense rGrArArCrArGrCrGrGrCrGrGrArArGrUrUrUrUdTdT / antisense rArArArArCrUrUrCrCrGrCrCrGrCrUrGrUrUrCdCdA”, “sense rGrArArUrArArCrGrUrUrCrArUrUrCrCrUrGrGdTdT / antisense rCrCrArGrGrArArUrGrArArCrGrUrUrArUrUrCdAdC” is lower in normalised inhibition (eCFP-eYFP dual reporter): 84.3% for the first, 66.8% for the second.

Compared with “sense rGrArCrGrCrArGrUrGrGrArGrCrUrGrGrCrGrGdTdT / antisense rCrCrGrCrCrArGrCrUrCrCrArCrUrGrCrGrUrCdCdA”, “sense rGrArCrUrUrCrArUrCrUrGrGrGrArCrUrGrUrGdTdT / antisense rCrArCrArGrUrCrCrCrArGrArUrGrArArGrUrCdTdG” is higher in normalised inhibition (eCFP-eYFP dual reporter): 65.5% for the first, 82.4% for the second.

Compared with “sense rGrArGrArArGrGrArArArArCrCrUrGrCrArArUdTdT / antisense rArUrUrGrCrArGrGrUrUrUrUrCrCrUrUrCrUrCdAdG”, “sense rGrArGrArGrCrCrUrUrUrGrUrUrUrUrCrCrUrUdTdT / antisense rArArGrGrArArArArCrArArArGrGrCrUrCrUrCdTdG” is higher in normalised inhibition (eCFP-eYFP dual reporter): 79.1% for the first, 106% for the second.

Going from “sense rGrArGrArUrGrCrUrGrGrUrGrCrArGrCrUrCrGdTdT / antisense rCrGrArGrCrUrGrCrArCrCrArGrCrArUrCrUrCdGdG” to “sense rGrArGrCrCrGrUrCrCrGrCrGrGrUrUrUrCrCrAdTdT / antisense rUrGrGrArArArCrCrGrCrGrGrArCrGrGrCrUrCdAdC”, the normalised inhibition (eCFP-eYFP dual reporter) rises from 32.2% to 70.1%.

Compared with “sense rGrArGrGrArCrArUrCrGrCrGrUrCrGrCrUrGrAdTdT / antisense rUrCrArGrCrGrArCrGrCrGrArUrGrUrCrCrUrCdGdC”, “sense rGrArGrGrArCrUrCrCrArUrGrCrArGrCrArArUdTdT / antisense rArUrUrGrCrUrGrCrArUrGrGrArGrUrCrCrUrCdTdT” is lower in normalised inhibition (eCFP-eYFP dual reporter): 77.9% for the first, 44.8% for the second.

Compared with “sense rGrArGrGrUrCrUrUrGrUrUrCrGrUrCrUrGrUrAdTdT / antisense rUrArCrArGrArCrGrArArCrArArGrArCrCrUrCdAdT”, “sense rGrArGrUrGrUrCrGrUrGrCrArGrArCrArArGrCdTdT / antisense rGrCrUrUrGrUrCrUrGrCrArCrGrArCrArCrUrCdAdG” is lower in normalised inhibition (eCFP-eYFP dual reporter): 72.7% for the first, 64.8% for the second.

First: sense rGrArUrCrArArGrArCrGrCrArGrGrUrArGrArGdTdT / antisense rCrUrCrUrArCrCrUrGrCrGrUrCrUrUrGrArUrCdTdG
Second: sense rGrCrArArArGrCrArGrCrGrGrArGrArUrGrCrGdTdT / antisense rCrGrCrArUrCrUrCrCrGrCrUrGrCrUrUrUrGrCdTdT
The normalised inhibition (eCFP-eYFP dual reporter) of the first is lower: 72% for the first, 74.8% for the second.

Compared with “sense rGrCrGrCrCrCrGrUrGrCrGrCrArArCrCrGrGrGdTdT / antisense rCrCrCrGrGrUrUrGrCrGrCrArCrGrGrGrCrGrCdGdC”, “sense rGrCrUrCrUrUrUrCrUrUrGrGrGrUrGrArCrCrUdTdT / antisense rArGrGrUrCrArCrCrCrArArGrArArArGrArGrCdAdA” is higher in normalised inhibition (eCFP-eYFP dual reporter): 55.3% for the first, 95.8% for the second.

First: sense rGrCrUrGrArArArCrCrArGrArGrArGrCrCrUrUdTdT / antisense rArArGrGrCrUrCrUrCrUrGrGrUrUrUrCrArGrCdTdT
Second: sense rGrGrArArArArUrGrCrGrCrUrCrArCrArUrArCdTdT / antisense rGrUrArUrGrUrGrArGrCrGrCrArUrUrUrUrCrCdAdA
The normalised inhibition (eCFP-eYFP dual reporter) of the first is higher: 102% for the first, 86.7% for the second.

Compared with “sense rGrGrArCrArGrCrCrUrArArCrUrCrArUrUrUrUdTdT / antisense rArArArArUrGrArGrUrUrArGrGrCrUrGrUrCrCdCdA”, “sense rGrGrArGrArUrGrGrCrGrArArGrArUrGrGrCrCdTdT / antisense rGrGrCrCrArUrCrUrUrCrGrCrCrArUrCrUrCrCdTdG” is higher in normalised inhibition (eCFP-eYFP dual reporter): 62.8% for the first, 72.4% for the second.

First: sense rGrGrArGrGrArUrUrGrUrArUrUrGrUrUrUrCrUdTdT / antisense rArGrArArArCrArArUrArCrArArUrCrCrUrCrCdGdA
Second: sense rGrGrArGrUrUrGrGrArGrCrUrCrArCrCrGrCrCdTdT / antisense rGrGrCrGrGrUrGrArGrCrUrCrCrArArCrUrCrCdAdA
The normalised inhibition (eCFP-eYFP dual reporter) of the first is higher: 105% for the first, 50% for the second.

Compared with “sense rGrGrArUrUrGrUrArUrUrGrUrUrUrCrUrArUrGdTdT / antisense rCrArUrArGrArArArCrArArUrArCrArArUrCrCdTdC”, “sense rGrGrCrArArGrCrUrGrUrGrGrGrArGrArUrGrGdTdT / antisense rCrCrArUrCrUrCrCrCrArCrArGrCrUrUrGrCrCdCdC” is lower in normalised inhibition (eCFP-eYFP dual reporter): 93.3% for the first, 81% for the second.

Going from “sense rGrGrCrCrUrUrArCrArCrGrGrCrUrArGrGrArCdTdT / antisense rGrUrCrCrUrArGrCrCrGrUrGrUrArArGrGrCrCdCdA” to “sense rGrGrGrCrGrGrCrGrCrCrGrArGrCrCrCrCrGrCdTdT / antisense rGrCrGrGrGrGrCrUrCrGrGrCrGrCrCrGrCrCrCdGdC”, the normalised inhibition (eCFP-eYFP dual reporter) rises from 60% to 74.9%.

“sense rGrGrGrUrGrArCrCrUrGrArUrArGrCrUrCrCrCdTdT / antisense rGrGrGrArGrCrUrArUrCrArGrGrUrCrArCrCrCdAdA” gave a normalised inhibition (eCFP-eYFP dual reporter) of 87.1%.

— the OligoGym collection
